# In ChEMBL document CHEMBL5032530, “Discovery of Benzocyclic Sulfone Derivatives as Potent CXCR2 Antagonists for Cancer Immunotherapy” (J Med Chem, 2021):
# Calls of active or inactive are those of the source. The rule behind the calls is not given here.
# Key:
# Panc02 [1] = test: Antitumour activity against mouse Panc02 cells xenografted in mouse assessed as tumour growth inhibition at 10 mg/kg, po bid […]; assay type: functional; settings: read-out: TGI
# [2] = biological target: T1, C-X-C chemokine receptor type 2 (Homo sapiens, UniProt P25025); test: Antagonist activity at human CXCR2 expressed in HEK293 cells assessed as inhibition of CXCL8-induced beta-arrestin recruitment preincubated for 30 mins followed by addition of agonist incubated for 90 mins by beta arrestin assay; assay type: functional, cell-based
# T1 sequence (P25025 whole entry): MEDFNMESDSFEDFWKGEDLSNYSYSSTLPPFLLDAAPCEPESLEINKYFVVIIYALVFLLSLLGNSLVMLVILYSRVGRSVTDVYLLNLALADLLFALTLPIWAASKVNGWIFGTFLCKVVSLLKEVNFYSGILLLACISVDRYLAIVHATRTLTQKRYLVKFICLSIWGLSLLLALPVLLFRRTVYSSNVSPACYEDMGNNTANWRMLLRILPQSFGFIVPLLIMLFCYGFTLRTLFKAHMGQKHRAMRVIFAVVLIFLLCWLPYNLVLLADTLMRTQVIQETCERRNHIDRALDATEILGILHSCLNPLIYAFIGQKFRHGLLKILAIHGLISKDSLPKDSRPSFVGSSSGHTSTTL
# [3] = Cmax in ICR mouse at 3 mg/kg, iv measured upto 48 hrs; assay type: ADME, organism-based; design: route intravenous, dose 3 mg/kg, time <=48; settings: in vivo
# [4] = AUC (0 to t) in ICR mouse at 3 mg/kg, iv measured upto 48 hrs; assay type: ADME, organism-based; design: route intravenous, dose 3 mg/kg, time <=48; settings: in vivo
# [5] = AUC (0 to infinity) in ICR mouse at 3 mg/kg, iv measured upto 48 hrs; assay type: ADME, organism-based; design: route intravenous, dose 3 mg/kg, time <=48; settings: in vivo
# BXPC-3 = test: Cytotoxicity against human BxPC3 cells assessed as reduction in cell viability measured after 72 hrs by CCK8 assay; assay type: cell-based; settings: BXPC-3, 72 h
# Panc02 [6] = test: Antitumour activity against mouse Panc02 cells xenografted in mouse assessed as change in CD45 expressing immune cells infiltration into tumor tissue at 10 mg/kg, po bid measured after 15 days by flow cytometry analysis (reference value: 2.3%); assay type: functional; settings: time 15 day
# [7] = biological target: T1, C-X-C chemokine receptor type 2; test: Displacement of [I-125]-interleukin-8 against human recombinant CXCR2 expressed in CHO-K1 cells incubated for 60 mins by radio ligand binding assay; assay type: cell-based
# [8] = Tmax in ICR mouse at 3 mg/kg, iv measured upto 48 hrs; assay type: ADME, organism-based; settings: in vivo
# Panc02 [9] = test: Antitumour activity against mouse Panc02 cells xenografted in mouse assessed as change in Gr1 expressing immune cells infiltration into tumor tissue at 10 mg/kg, po bid measured after 15 days by flow cytometry analysis (reference value: 27.4%); assay type: functional; settings: time 15 day
# [10] = Clearance in ICR mouse at 3 mg/kg, iv measured upto 48 hrs; assay type: ADME, organism-based; settings: in vivo
# Panc02 [11] = test: Antitumour activity against mouse Panc02 cells xenografted in mouse assessed as change in CD11b expressing immune cells infiltration into tumor tissue using LY6G antibody at 3 mg/kg, po bid measured after 15 days by flow cytometry analysis (reference value: 29.7%); assay type: functional; settings: time 15 day
# Panc02 [12] = test: Antitumour activity against mouse Panc02 cells xenografted in mouse assessed as reduction in infiltration of neutrophils into tumor tissue at 30 mg/kg, po bid measured after 15 days by immunohistochemical analysis; assay type: functional, organism-based; settings: time 15.0 day
# Panc02 [13] = test: Cytotoxicity against mouse Panc02 cells assessed as reduction in cell viability measured after 72 hrs by CCK8 assay; assay type: cell-based; settings: panc02, 72 h
# Panc02 [14] = test: Antitumour activity against mouse Panc02 cells xenografted in mouse assessed as change in CD11b expressing immune cells infiltration into tumor tissue using LY6C antibody at 10 mg/kg, po bid measured after 15 days by flow cytometry analysis (reference value: 20.5%); assay type: functional; settings: time 15 day
# Panc02 [15] = test: Antitumour activity against mouse Panc02 cells xenografted in mouse assessed as change in CD45 expressing immune cells infiltration into tumor tissue at 3 mg/kg, po bid measured after 15 days by flow cytometry analysis (reference value: 27.4%); assay type: functional; settings: time 15 day
# [16] = Cmax in ICR mouse at 30 mg/kg, po measured upto 48 hrs; assay type: ADME, organism-based; design: route oral, dose 30 mg/kg, time <=48; settings: in vivo
# Panc02 [17] = test: Antitumour activity against mouse Panc02 cells xenografted in mouse assessed as change in CD11b expressing immune cells infiltration into tumor tissue using LY6C antibody at 3 mg/kg, po bid measured after 15 days by flow cytometry analysis (reference value: 20.5%); assay type: functional; settings: time 15 day
# Panc02 [18] = test: Antitumour activity against mouse Panc02 cells xenografted in mouse assessed as reduction in infiltration of neutrophils into tumor tissue at 3 mg/kg, po bid measured after 15 days by flow cytometry analysis; assay type: functional, organism-based; settings: time 15.0 day
# PANC-1 = test: Cytotoxicity against human PanC-1 cells assessed as reduction in cell viability measured after 72 hrs by CCK8 assay; assay type: cell-based; settings: PANC-1, 72 h
# Panc02 [19] = test: Antitumour activity against mouse Panc02 cells xenografted in mouse assessed as upregulation of infiltration of CD3+ T cell into tumor tissue treated po twice a day measured after 15 days by immunohistochemical analysis; assay type: functional, organism-based; settings: dose 10-30 mg/kg, time 15.0 day
# [20] = AUC (0 to t) in ICR mouse at 30 mg/kg, po measured upto 48 hrs; assay type: ADME, organism-based; design: route oral, dose 30 mg/kg, time <=48; settings: in vivo
# Panc02 [21] = test: Antitumour activity against mouse Panc02 cells xenografted in mouse assessed as change in CD45 expressing immune cells infiltration into tumor tissue at 3 mg/kg, po bid measured after 15 days by flow cytometry analysis (reference value: 2.3%); assay type: functional; settings: time 15 day
# Neutrophil = test: In vivo antagonist activity at CXCR2 in carrageenan-induced C57BL/6 mouse air pouch inflammation model assessed as reduction in neutrophil infiltration into air pouch at 30 mg/kg, po bid administered after 3 days of carrageenan treatment for 3 days; assay type: functional, organism-based; settings: time 3.0 day
# [22] = Half life in ICR mouse at 3 mg/kg, iv measured upto 48 hrs; assay type: ADME, organism-based; settings: in vivo
# [23] = Half life in ICR mouse at 30 mg/kg, po measured upto 48 hrs; assay type: ADME, organism-based; settings: ICR, in vivo
# [24] = AUC (0 to infinity) in ICR mouse at 30 mg/kg, po measured upto 48 hrs; assay type: ADME, organism-based; design: route oral, dose 30 mg/kg, time <=48; settings: ICR, in vivo
# SW1990 = test: Cytotoxicity against human SW1990 cells assessed as reduction in cell viability measured after 72 hrs by CCK8 assay; assay type: cell-based; settings: SW1990, 72 h
# [25] = Clearance in ICR mouse at 30 mg/kg, po measured upto 48 hrs; assay type: ADME, organism-based; settings: ICR, in vivo
# Panc02 [26] = test: Antitumour activity against mouse Panc02 cells xenografted in mouse assessed as change in CD11b expressing immune cells infiltration into tumor tissue using LY6G antibody at 10 mg/kg, po bid measured after 15 days by flow cytometry analysis (reference value: 29.7%); assay type: functional; settings: time 15 day
# MIA PaCa-2 = test: Cytotoxicity against human MIA PaCa-2 cells assessed as reduction in cell viability measured after 72 hrs by CCK8 assay; assay type: cell-based; settings: MIA PaCa-2, 72 h
# Panc02 [27] = test: Antitumour activity against mouse Panc02 cells xenografted in mouse assessed as tumour growth inhibition at 3 mg/kg, po bid […]; assay type: functional; settings: read-out: TGI
# [28] = Apparent volume of distribution in ICR mouse at 30 mg/kg, po measured upto 48 hrs; assay type: ADME, organism-based; settings: in vivo
# [29] = Oral bioavailability in ICR mouse at 30 mg/kg measured upto 48 hrs; assay type: ADME, organism-based; settings: in vivo
# Mus musculus = test: Effect on granulocytic MDSCs level in mouse xenografted with […] cells at 10 to 30 mg/kg, po bid measured after 15 days by immunohistochemical analysis; assay type: ADME, organism-based; settings: in vivo, 360 h, dose 10-30 mg/kg, time 15 day
# [30] = Cytotoxicity against human PBMC cells assessed as reduction in cell viability measured after 72 hrs by CCK8 assay; assay type: cell-based
# Panc02 [31] = test: Antitumour activity against mouse Panc02 cells xenografted in mouse assessed as reduction in infiltration of granulocytic MDSCs into tumor tissue at 30 mg/kg, po bid measured after 15 days by immunohistochemical analysis; assay type: functional, organism-based; settings: time 15.0 day
# [32] = Tmax in ICR mouse at 30 mg/kg, po measured upto 48 hrs; assay type: ADME, organism-based; settings: in vivo
# Panc02 [33] = test: Antitumour activity against mouse Panc02 cells xenografted in mouse assessed as reduction in infiltration of granulocytic MDSCs into tumor tissue at 3 mg/kg, po bid measured after 15 days by flow cytometry analysis; assay type: functional, organism-based; settings: time 15.0 day
# [34] = Apparent volume of distribution in ICR mouse at 3 mg/kg, iv measured upto 48 hrs; assay type: ADME, organism-based; settings: in vivo, read-out: Vz
structure (smiles),measurement,setting,value
Cc1c(F)cccc1NC(=O)Nc1ccc2c(c1O)S(=O)(=O)CC=C2,inhibition in vivo at 10 mg/kg,Panc02 [1],66.7%
same,IC50,[2],34 nM
same,Cmax,[3],5120 ng/mL
same,AUC(0-t) at 48 h,[4],1510 ng·h/mL
same,AUC(0-inf),[5],1550 ng·h/mL
same,IC50,BXPC-3,> 10000 nM
same,Activity,Panc02 [6],40.2%
same,Ki,[7],440 nM
same,Tmax,[8],3 min
same,Activity,Panc02 [9],7.6%
same,clearance,[10],32.8 mL/min/kg
same,Activity,Panc02 [11],15.8%
same,Activity,Panc02 [12],Active
same,Activity,Panc02 [13],Non-Toxic
same,Activity,Panc02 [14],17.8%
same,Activity,Panc02 [15],12.7%
same,Cmax,[16],419 ng/mL
same,Activity,Panc02 [17],15%
same,Activity,Panc02 [18],Active
same,IC50,PANC-1,> 10000 nM
same,Activity,Panc02 [19],Dose-Dependent Effect
same,AUC(0-t) at 48 h,[20],3510 ng·h/mL
same,Activity,Panc02 [21],34.9%
same,Activity,Neutrophil,Active
same,half-life,[22],3.39 h
same,half-life,[23],3.83 h
same,AUC(0-inf),[24],3570 ng·h/mL
same,IC50,SW1990,> 10000 nM
same,CL/F,[25],143 mL/min/kg
same,Activity,Panc02 [26],8.11%
same,IC50,MIA PaCa-2,> 10000 nM
same,inhibition in vivo at 3 mg/kg,Panc02 [27],58.2%
same,Vz,[28],47.39 L/kg
same,bioavailability,[29],23.2%
same,Activity,Mus musculus,Non-Toxic
same,IC50,[30],> 10000 nM
same,Activity,Panc02 [31],Active
same,Tmax,[32],3.42 h
same,Activity,Panc02 [33],Active
same,Vd,[34],9.82 L/kg
O=C(Nc1ccc(Cl)cc1Cl)Nc1ccc2c(c1O)S(=O)(=O)CC=C2,IC50,[2],5920 nM
O=C(Nc1ccc2c(c1O)S(=O)(=O)CC=C2)Nc1cccc(Cl)c1Cl,IC50,[2],130 nM
O=c1c(Nc2ccccc2Cl)c(Nc2ccc3c(c2O)S(=O)(=O)CC=C3)c1=O,IC50,[2],200 nM
O=C(Nc1ccccc1Br)Nc1ccc2c(c1O)S(=O)(=O)CCC2,IC50,[2],140 nM
Cc1c(Cl)cccc1NC(=O)Nc1ccc2c(c1O)S(=O)(=O)CCC2,IC50,[2],2430 nM
O=c1c(Nc2ccc3c(c2O)S(=O)(=O)CCC3)c(Nc2cccc(Cl)c2Cl)c1=O,IC50,[2],9990 nM
O=C(Nc1ccc2c(c1O)S(=O)(=O)CCC2)Nc1cccc(F)c1Cl,IC50,[2],43 nM
